Test results reported in patent US10227331B2 (priority 2015, dated 2019).
Read-outs that look alike come from different tables or passages of the source.

Tests used:
IMP-1 = IMP-1 (Serratia marcescens, UniProt P52699); experiment: biochemical; type: biochemical
Outline: (§1)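 Fluorescence assay, CCF2-FA substrate (cephalosporin core linking 7-hydroxycoumarin to fluorescein); inhibitor + MBL + substrate, 2 h, 25° C. IC50 by 4-parameter fit, semi-log plot.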

NDM-1 = NDM-1 (Klebsiella pneumoniae, UniProt C7C422); experiment: biochemical; type: biochemical; conditions: CCF2-FA substrate, 2 hours at 25° C; read-out: NDM-1 IC50
Outline: as §1

VIM-1 = VIM-1 (Pseudomonas aeruginosa (strain ATCC 15692 / DSM 22644 / CIP 104116 / JCM 14847 / LMG 12228 / 1C / PRS 101 / PAO1), UniProt A0A0F7KYQ8); experiment: biochemical; conditions: CCF2-FA substrate, 2 hours at 25° C
Outline: as §1

[1] = tested on: Escherichia coli expressing NDM-1 (CLB30005, CLB30016); type: cell-based; conditions: with imipenem 1 μg/ml, 95% inhibition of bacterial growth; for Escherichia coli MITC95: NDM-1 (CLB30016)
Outline: (§2)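 Colonies from overnight 35 °C blood-agar cultures were suspended in saline, diluted 1:100 into 1.1× CAMHB and exposed to test compound with or without imipenem at 1 μg/ml. After 22–24 h at 35 °C, absorbance was read to find the concentration restoring imipenem susceptibility.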

[2] = tested on: Klebsiella pneumoniae expressing VIM-1 (IHMA599644); type: cell-based; conditions: with imipenem 1 μg/ml, 95% inhibition of bacterial growth; for Klebsiella pneumoniae MITC95: VIM-1 (IHMA599644)
Outline: as §2

[3] = tested on: Serratia marcescens expressing IMP-1 (CL5741); type: cell-based; conditions: with imipenem 1 μg/ml, 95% inhibition of bacterial growth; for Serratia marcescens MITC95: IMP-1 (CL5741)
Outline: as §2

[4] = tested on: P. aeruginosa expressing IMP-1, efflux+ (MB9798); type: cell-based, Pseudomonas aeruginosa; conditions: for P. aeruginosa expressing IMP-1, efflux+ (MB9798) MITC95: imipenem at 2 μg/mL, in the presence of a class A, C, D serine β-lactamase inhibitor closely related to relebactam; for Efflux ratio: ratio MITC95 PA_9798/MITC95 PA_9799
Description: (§3) The strain background is Pseudomonas aeruginosa PAO1.

[5] = tested on: P. aeruginosa expressing IMP-1, efflux− (MB9799); experiment: Efflux: concentration of MBL inhibitor which restores susceptibility to imipenem; type: cell-based, Pseudomonas aeruginosa; conditions: imipenem at 2 μg/mL, in the presence of a class A, C, D serine β-lactamase inhibitor closely related to relebactam
Description: as §3

[6] = CCF2-FA substrate, 2 hours at 25° C, read-out: IMP-1 IC50

Sequence of IMP-1 (P52699 whole entry, looked up, species assumed): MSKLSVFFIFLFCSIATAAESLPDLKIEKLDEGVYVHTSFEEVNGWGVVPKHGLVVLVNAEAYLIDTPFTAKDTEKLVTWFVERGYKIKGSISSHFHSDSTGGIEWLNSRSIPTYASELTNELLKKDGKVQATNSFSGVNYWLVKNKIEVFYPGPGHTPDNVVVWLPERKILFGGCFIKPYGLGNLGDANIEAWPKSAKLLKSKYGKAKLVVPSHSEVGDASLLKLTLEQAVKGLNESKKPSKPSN
Sequence of NDM-1 (C7C422 whole entry, looked up, species assumed): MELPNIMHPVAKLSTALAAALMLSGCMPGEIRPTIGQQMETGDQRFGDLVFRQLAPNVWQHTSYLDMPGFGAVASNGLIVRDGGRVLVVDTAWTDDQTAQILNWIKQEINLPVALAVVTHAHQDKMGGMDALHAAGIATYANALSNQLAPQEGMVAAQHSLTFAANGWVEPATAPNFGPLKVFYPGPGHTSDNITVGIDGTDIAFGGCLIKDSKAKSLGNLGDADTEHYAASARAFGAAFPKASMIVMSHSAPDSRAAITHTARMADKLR

Compound	IC50 (IMP-1; [6]) [nM]	IC50 (NDM-1) [nM]	IC50 (VIM-1) [nM]	Escherichia coli MITC95 [1] [µM]	Klebsiella pneumoniae MITC95 [2] [µM]	Serratia marcescens MITC95 [3] [µM]	P. aeruginosa expressing IMP-1, efflux+ (MB9798) MITC95 [4] [µM]	Efflux ratio [4]	P. aeruginosa expressing IMP-1, efflux− (MB9799) MITC95 [5] [µM]	Escherichia coli expressing NDM-1 (CLB30016) MITC95 [1] [µM]	Klebsiella pneumoniae expressing VIM-1 (IHMA599644) MITC95 [2] [µM]	Serratia marcescens expressing IMP-1 (CL5741) MITC95 [3] [µM]	IC50 (IMP-1) [nM]
C[C@@H](N)CS(=O)(=O)c1ccc(-c2cccc3c2nc(N)n3C)c(-c2nn[nH]n2)c1S(N)(=O)=O [Example 275, 3-(2-amino-1-methyl-1H-benzo[d]imidazol-4-yl)-6-((R)-2-aminopropylsulfonyl)-2-(2H-tetrazol-5-yl)benzenesulfonamide]	0.84	0.582	0.696	0.5	1.781	0.8906	2.563	2.88	0.8906	–	–	–	–
Nc1nc2c(-c3ccc(S(=O)(=O)[C@H]4C[C@@H](N)C4)c(S(N)(=O)=O)c3-c3nn[nH]n3)cccc2s1 [Example 180, 3-(2-aminobenzo[d]thiazol-4-yl)-6-((1s,3s)-3-aminocyclobutylsulfonyl)-2-(2H-tetrazol-5-yl)benzenesulfonamide]	0.26	0.0833	0.196	–	–	–	0.7813	1.00	0.7813	3.125	3.125	1.563	–
CNC(=O)c1nc2c(-c3ccc(S(=O)(=O)C4CNC4)c(S(N)(=O)=O)c3-c3nn[nH]n3)cccc2[nH]1 [Example 255, 4-(4-(Azetidin-3-ylsulfonyl)-3-sulfamoyl-2-(2H-tetrazol-5-yl)phenyl)-N-methyl-1H-benzo[d]imidazole-2-carboxamide]	1.66	0.151	0.419	6.25	12.5	6.25	12.5	4.00	3.125	–	–	–	–
NC[C@@H](O)CS(=O)(=O)c1ccc(-c2cccc3[nH]cnc23)c(-c2nn[nH]n2)c1S(N)(=O)=O [Example 361, (R)-6-((3-amino-2-hydroxypropyl)sulfonyl)-3-(1H-benzo[d]imidazol-4-yl)-2-(2H-tetrazol-5-yl) benzenesulfonamide]	0.174	0.0905	0.253	0.7813	1.563	0.7813	0.7813	1.00	0.7813	–	–	–	–
N#Cc1cc(-c2ccc(S(=O)(=O)C3CNC3)c(S(N)(=O)=O)c2-c2nnn[nH]2)c2[nH]c(N)nc2c1 [Example 261, 3-(2-amino-5-cyano-1H-benzo[d]imidazol-7-yl)-6-(azetidin-3-ylsulfonyl)-2-(1H-tetrazol-5-yl) benzenesulfonamide]	1.15	0.4	0.734	6.25	12.5	6.25	6.25	1.00	6.25	–	–	–	–
Nc1nc2cccc(-c3ccc([S+]([O-])C4CCNCC4)c(S(N)(=O)=O)c3-c3nn[nH]n3)c2[nH]1 (stereo not drawn) [Example 14, 3-(2-amino-3H-benzo[d]imidazol-4-yl)-6-(piperidin-4-ylsulfinyl)-2-(2H-tetrazol-5-yl)benzenesulfonamide]	23.9	0.292	0.868	–	–	–	6.25	4.00	1.563	6.25	3.125	3.125	–
NCCS(=O)(=O)c1ccc(-c2ccc(CO)nc2)c(-c2nnn[nH]2)c1S(N)(=O)=O.O=C(O)C(F)(F)F [Example 145, 2-((4-(6-(hydroxymethyl)pyridin-3-yl)-2-sulfamoyl-3-(1H-tetrazol-5-yl)phenyl)sulfonyl)ethanaminium 2,2,2-trifluoroacetate]	4.84	4.31	1.25	–	–	–	12.5	8.00	1.563	1.563	6.25	3.125	–
Cn1c(N)nc2c(-c3ccc(S(=O)(=O)CCN)c(S(N)(=O)=O)c3-c3nn[nH]n3)cccc21 [Example 79, 3-(2-amino-1-methyl-1H-benzo[d]imidazol-4-yl)-6-(2-aminoethylsulfonyl)-2-(2H-tetrazol-5-yl)benzenesulfonamide]	–	0.354	0.327	–	–	–	0.8906	1.39	0.6406	0.25	1.281	0.8906	0.241
Nc1c(-c2ccc(S(=O)(=O)C3CNC3)c(S(N)(=O)=O)c2-c2nn[nH]n2)cccc1S(N)(=O)=O [Example 287, 2′-amino-4-(azetidin-3-ylsulfonyl)-2-(2H-tetrazol-5-yl)biphenyl-3,3′-disulfonamide]	2.92	0.386	0.607	3.125	3.125	3.125	6.25	2.00	3.125	–	–	–	–
Nc1nc2c(-c3ccc(S(=O)(=O)C4CNC4)c(S(N)(=O)=O)c3-c3nn[nH]n3)cccc2n1CCO [Example 373, 3-(2-Amino-1-(2-hydroxyethyl)-1H-benzo[d]imidazol-4-yl)-6-(azetidin-3-ylsulfonyl)-2-(2H-tetrazol-5-yl)benzenesulfonamide]	0.409	0.139	0.248	0.7813	3.125	1.563	1.563	1.00	1.563	–	–	–	–
NS(=O)(=O)c1c(S(=O)(=O)C2CNC2)ccc(-c2cccc3ncccc23)c1-c1nnn[nH]1.O=C(O)C(F)(F)F [Example 118, 3-((4-(quinolin-5-yl)-2-sulfamoyl-3-(1H-tetrazol-5-yl)phenyl)sulfonyl)azetidin-1-ium 2,2,2-trifluoroacetate]	1.42	0.145	0.388	–	–	–	12.5	4.00	3.125	3.125	6.25	6.25	–
